Test results from patent publication US20050084505A1, “Utilization of ubiquinones for influencing the effect of histamine” (priority 2002, published 2005).

Experiments:
[1] = test system: Isolated, perfused and ventilated lungs from adult rats; test: Isolated, perfused and ventilated rat lung, histamine-induced constriction
Procedure: Isolated, perfused and ventilated lungs from adult rats (280 to 330 g body weight) were injected with 50 pg of histamine per lung. After 2 to […], this caused constriction of the bronchial and pulmonary vessels with reduction of the lung extensibility.

[2] = test system: prepared lung tissue and trachea pieces of guinea pigs; details: tissue not aerated, cited from earlier work
[3] = upon the action of γ-globulin on lung tissue

## COC1=C(OC)C(=O)C(C/C=C(\C)CC/C=C(\C)CC/C=C(\C)CC/C=C(\C)CC/C=C(\C)CC/C=C(\C)CC/C=C(\C)CC/C=C(\C)CC/C=C(\C)CCC=C(C)C)=C(C)C1=O [CoQ-10, 2,3-dimethoxy-5-methyl-6-decaprenyl-1,4-benzoquinone]
[1]; 2.7 ppm in the perfusate, compared with control perfusion (even below)
  spontaneous vasoconstriction of the lung vessels: decreased
[1]; previous addition of 2.7 ppm in the perfusate, 50 pg of histamine per lung, reaction after 2 to 3 hours
  delayed histamine reaction (constriction of the bronchial and pulmonary vessels with reduction of the lung extensibility): completely prevented
[2]; continuously administered
  contraction of lung tissue by added histamine: increased
[2]; [3]
  secretion of SRS-A: reduced
  secretion of histamines: reduced
